US9518018B2, “3-alkoxy, thioalkyl and amino-4-amino-6-(substituted)picolinates and their use as herbicides” (Dow AgroSciences LLC, priority 2011, dated 2016)

Test system: LIDDU = Lindernia dubia (L.) PENNELL (low falsepimpernel)
Assay: In-water applied herbicidal activity in transplanted paddy rice
Type: in vivo
Settings: 21 DAA
Protocol: Rice seeds were planted in Sun Gro MetroMix 306 planting mixture, which typically has a pH of 6.0 to 6.8 and an organic matter content of about 30 percent, in plastic plug trays. Seedlings at the second or third leaf stage of growth were transplanted into 650 mL of mud contained in 960 mL non-perforated plastic pots with a surface area of 86.59 cm^2 four days prior to herbicide application. The paddy was created by filling the 2.5 to 3 cm headspace of the pots with water. When required to ensure good germination and healthy plants, a fungicide treatment and/or other chemical or physical treatment was applied. The plants were grown for 4-14 d in a greenhouse with an approximate 14-h photoperiod which was maintained at about 29° C. during the day and 26° C. during the night. Nutrients were added as Osmocote (17:6:10, Nitrogen:Phosphorus:Potassium (N:P:K)+minor nutrients) at 2 grams (g) per cup. Water was added on a regular basis to maintain the paddy flood, and supplemental lighting was provided with overhead metal halide 1000-Watt lamps as necessary. The plants were employed for testing when they reached the second or third true leaf stage. Treatments consisted of compounds 45, 34, and 66. For technical grade compounds, a weighed amount, determined by the highest rate to be tested, was placed in an individual 120 mL glass vial and was dissolved in 20 mL of acetone to obtain concentrated stock solutions. […] The concentrated stock solutions obtained were diluted with 20 mL of an aqueous mixture containing 2.5% Agri-dex crop oil concentrate (v/v). Applications were made by injecting an appropriate amount of the stock solution into the aqueous layer of the paddy. Control plants were treated in the same manner with the solvent blank. All treated plant material received the same concentration of acetone and crop oil concentrate. The treated plants and control plants were placed in a greenhouse as described above and water was added as needed to maintain a paddy flood. After approximately 3 weeks, the condition of the test plants, compared with that of the untreated plants, was determined visually and scored on a scale of 0 to 100 percent where 0 corresponds to no injury and 100 corresponds to complete kill. By applying the well-accepted probit analysis as described by J. Berkson in Journal of the […], 48, 565 (1953) and by D. Finney in “Probit Analysis” Cambridge University Press (1952) or by plotting the mean data and fitting a logarithmic curve to the portion of the data where there was a dose response using Microsoft Excel®, the above data can be used to calculate GR50 and GR90 values, which are defined as growth reduction factors that correspond to the effective dose of herbicide required to kill or control 50 percent or 90 percent, respectively, of a target plant.

COc1c(C(=O)OCc2ccccc2)nc(-c2ccc(Cl)c(OC)c2F)c(F)c1N [Compound 66, benzyl 4-amino-6-(4-chloro-2-fluoro-3-methoxyphenyl)-5-fluoro-3-methoxypicolinate]
Mean Visual Injury (%)-21 Days After Application LIDDU (2.19 g ae/ha): 0%
Mean Visual Injury (%)-21 Days After Application LIDDU (4.38 g ae/ha): 100%
Mean Visual Injury (%)-21 Days After Application LIDDU (8.75 g ae/ha): 100%
Mean Visual Injury (%)-21 Days After Application LIDDU (17.5 g ae/ha): 100%
Mean Visual Injury (%)-21 Days After Application LIDDU (35 g ae/ha): 100%
Mean Visual Injury (%)-21 Days After Application LIDDU (70 g ae/ha): 100%
GR50 LIDDU (dose to kill or control 50 percent): <4.38 g ae/ha
GR90 LIDDU (dose to kill or control 90 percent): <4.38 g ae/ha
